Experimental data as given in patent US6489292B1, “Stable aqueous insulin preparations without phenol and cresol” (Novo Nordisk A/S, priority 1998, dated 2002).
Each block holds one compound with its values, some of them ahead of it.

How the values were obtained:
[1] = biological target: T1, human insulin (Homo sapiens, UniProt P01308); assay: Physical stability of insulin solution at 5° C. by visual inspection for precipitation; assay type: physicochemical; settings: 0.5 Zn2+/insulin, NaCl 15 mM, glycylglycine 7 mM, tween 20 0.01%, pH 7.5
T1 construct: Insulin derivatives having truncations in the C-terminal of the B-chain; deamidations at A18, A21 and B3
Method: (§1) 27.5 ml of a 21 mM insulin stock solution was made by dissolving 3.707 g zinc free human insulin in 14 ml water and adding 2888 μl of 0.1 M ZnCl2 and 7 ml water before adjusting pH to 7.5 by 0.2 M NaOH and finally adding water to 27.5 ml, calculating the specific volume of insulin as 0.7 μl/mg. The stock solution was filtrated. A preparation of 3.5 ml 15 mM insulin was then made by adding 23 μl 2.3 M stabiliser in ethanol, 49 μl 0.5 M glycylglycine and 35 μl 1% Tween 20 and water to 3.5 ml. The solution was thereafter diluted with medium containing sodium chloride 15 mM, glycylglycine 7 mM, Tween 20 0.01%, pH 7.5 to 12, 9, 6, 3 and 0.6 mM insulin and stored at 5° C. for visual inspection. The reference solution was made by the same way but without adding a stabiliser. The chemical stability of the insulin solutions were followed at 37° C. for two concentrations, 3 and 15 mM, by determination of covalent insulin polymer by size exclusion chromatography. […] Detection was performed with a tunable absorbance detector (Waters 486) at 276 nm. Injection volume were […] for 3 and 15 mM insulin solutions, respectively.
(§2) 3.26 g human insulin (0.4 equivalent Zn^2+ per insulin) was dispersed in water in 18 ml water on icebath and added 490 μl 0.5 M glycylglycine and 1628 μl sodium hydroxide (3.1 equivalent) and stirred slowly overnight at 5° C. 613 μl 0.1 M zinc chloride (0.1 equivalent of zinc) was then added the solution, pH adjusted to 7.5 by 410 μl 1 M hydrochloric acid (0.8 equivalent of chloride) and the volume adjusted to 25 ml by water. Finally the stock solution of 21 mM insulin was filtrated. 3.57 ml of the stock solution was added 50 μl 1% tween 20, 750 μl 0.1 M stabiliser and 630 μl water to obtain 5 ml 15 mM insulin formulation. Finally the preparation was diluted with medium containing sodium chloride, glycylglycine and detergent to obtain 12, 9, 6, and 3 mM of human insulin and stored at 5° C. for visual inspection. The chemical stability of 3 and 15 mM insulin solutions were followed at 37° C. by determination of covalent insulin polymer by size exclusion chromatography.

[2] = biological target: T1, human insulin; assay: Chemical stability at 37° C.: covalent insulin polymer by size exclusion chromatography; assay type: physicochemical; settings: stabiliser equimolar to insulin, 0.5 Zn2+/insulin, NaCl 15 mM, glycylglycine 7 mM, tween 20 0.01%, pH 7.5
Method: as §1, §2

[3] = example 1, stabiliser equimolar to insulin
[4] = example 2, stabiliser equimolar to insulin

T1 sequence (P01308 25-54 limits assumed): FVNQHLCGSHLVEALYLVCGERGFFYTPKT
T1 sequence (P01308 90-110 limits assumed): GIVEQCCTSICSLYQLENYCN

Structure (SMILES): CC1(C)C2CCC1(C)C(O)C2 (single isomer, unassigned; (+)) [(+)-borneol]
Chemical stability at 37° C. (% polymer/week), insulin solution of 3 mM ([2]; example 1, 3 mM insulin): 0.47 % polymer/week
Chemical stability at 37° C. (% polymer/week), insulin solution of 15 mM ([2]; example 1, 15 mM insulin): 0.61 % polymer/week
Physical stability of solution at 4 weeks and 5° C.: maximal insulin concentration at which the solution was without precipitation up to 15 mM (3, 6, 9, 12, 15 mM) [1, 3]: 9 mM

Structure (SMILES): CC1(C)[C@H]2CC[C@](C)(C2)[C@H]1O [(+)-fenchol]
Chemical stability at 37° C. (% polymer/week), insulin solution of 3 mM ([2]; example 1, 3 mM insulin): 0.50 % polymer/week
Chemical stability at 37° C. (% polymer/week), insulin solution of 15 mM ([2]; example 1, 15 mM insulin): 0.97 % polymer/week
Physical stability of solution at 4 weeks and 5° C.: maximal insulin concentration at which the solution was without precipitation up to 15 mM (3, 6, 9, 12, 15 mM) [1, 3]: 15 mM

Structure (SMILES): C[C@@H]1[C@@H](O)C[C@H]2C[C@@H]1C2(C)C [(+)-isopinocampheol]
Physical stability of solution at 4 weeks and 5° C.: maximal insulin concentration at which the solution was without precipitation up to 15 mM (3, 6, 9, 12, 15 mM) [1, 3]: 12 mM

Structure (SMILES): Oc1ccccc1 [phenol]
Chemical stability at 37° C. (% polymer/week), insulin solution of 3 mM ([2]; example 1, 3 mM insulin): 0.37 % polymer/week
Chemical stability at 37° C. (% polymer/week), insulin solution of 15 mM ([2]; example 1, 15 mM insulin): 0.39 % polymer/week
Chemical stability at 37° C. (% polymer/week), insulin solution of 3 mM ([2]; example 2, 3 mM insulin): 0.32 % polymer/week
Chemical stability at 37° C. (% polymer/week), insulin solution of 15 mM ([2]; example 2, 15 mM insulin): 0.29 % polymer/week
Physical stability of solution at 4 weeks and 5° C.: maximal insulin concentration at which the solution was without precipitation up to 15 mM (3, 6, 9, 12, 15 mM) [1, 3]: 15 mM
Physical stability of solution at 4 weeks and 5° C.: maximal insulin concentration at which the solution was without precipitation up to 15 mM (3, 6, 9, 12, 15 mM) [1, 4]: 15 mM

Now from value to compound:

Physical stability of solution at 4 weeks and 5° C.: maximal insulin concentration at which the solution was without precipitation up to 15 mM (3, 6, 9, 12, 15 mM) [1, 3]: 15 mM
Structure (SMILES): CC1(C)[C@H]2CC[C@H](CO)[C@@H]1C2 (relative stereo) [(−)-trans-myrtanol]

Chemical stability at 37° C. (% polymer/week), insulin solution of 3 mM ([2]; example 1, 3 mM insulin): 0.43 % polymer/week
Chemical stability at 37° C. (% polymer/week), insulin solution of 15 mM ([2]; example 1, 15 mM insulin): 0.47 % polymer/week
Physical stability of solution at 4 weeks and 5° C.: maximal insulin concentration at which the solution was without precipitation up to 15 mM (3, 6, 9, 12, 15 mM) [1, 3]: 9 mM
Structure (SMILES): CC1(C)C2CCC1(C)C(O)C2 (single isomer, unassigned; (-)) [(−)-borneol]

Physical stability of solution at 4 weeks and 5° C.: maximal insulin concentration at which the solution was without precipitation up to 15 mM (3, 6, 9, 12, 15 mM) [1, 3]: 15 mM
Structure (SMILES): CC1C(O)CC2CC1C2(C)C (single isomer, unassigned; (-)) [(−)-isopinocampheol]

Chemical stability at 37° C. (% polymer/week), insulin solution of 3 mM ([2]; example 2, 3 mM insulin): 0.59 % polymer/week
Chemical stability at 37° C. (% polymer/week), insulin solution of 15 mM ([2]; example 2, 15 mM insulin): 0.77 % polymer/week
Physical stability of solution at 4 weeks and 5° C.: maximal insulin concentration at which the solution was without precipitation up to 15 mM (3, 6, 9, 12, 15 mM) [1, 4]: 9 mM
Structure (SMILES): Nc1ncnc2nc[nH]c12 [adenine]

Chemical stability at 37° C. (% polymer/week), insulin solution of 3 mM ([2]; example 2, 3 mM insulin): 0.58 % polymer/week
Chemical stability at 37° C. (% polymer/week), insulin solution of 15 mM ([2]; example 2, 15 mM insulin): 0.71 % polymer/week
Physical stability of solution at 4 weeks and 5° C.: maximal insulin concentration at which the solution was without precipitation up to 15 mM (3, 6, 9, 12, 15 mM) [1, 4]: 15 mM
Structure (SMILES): c1ncc2[nH]cnc2n1 [purine]
